Results as given in EP0549857A1, “Antibacterial quinolone carboxylic acid derivatives” (KOREA RESEARCH INSTITUTE OF CHEMICAL TECHNOLOGY, priority 1991, dated 1993).
Converted amounts (≈) assume the structure as drawn. Like-named read-outs stand apart in the source and are kept apart here.

Key:
[1] = system: Streptococcus pyogenes 308A; test: In vitro anti-bacterial activity test (MIC, two-fold agar dilution); type: cell-based; details: Mueller-Hinton agar, 10⁷ CFU/mℓ, 37°C, 18 hours, read-out: MIC
[2] = system: Streptococcus pyogenes 77A; test: as above; type: cell-based; details: Streptococcus pyogenes 77A; Mueller-Hinton agar, 10⁷ CFU/mℓ, 37°C, 18 hours; read-out: MIC
[3] = system: Streptococcus faecium MD 8b; test: as above; type: cell-based; details: Enterococcus faecium, MD8B; Streptococcus faecium MD 8b; Mueller-Hinton agar, 10⁷ CFU/mℓ, 37°C, 18 hours; read-out: MIC
[4] = system: Staphylococcus aureus SG 511; test: as above; type: cell-based; details: SG511; Staphylococcus aureus SG 511; Mueller-Hinton agar, 10⁷ CFU/mℓ, 37°C, 18 hours; read-out: MIC
[5] = system: Staphylococcus aureus 285; test: as above; type: cell-based; details: Staphylococcus aureus 285; Mueller-Hinton agar, 10⁷ CFU/mℓ, 37°C, 18 hours; read-out: MIC
[6] = system: Staphylococcus aureus 503; test: as above; type: cell-based; details: Staphylococcus aureus 503; Mueller-Hinton agar, 10⁷ CFU/mℓ, 37°C, 18 hours; read-out: MIC
Escherichia coli O 55 = test: as above; type: cell-based; details: O55, Mueller-Hinton agar, 10⁷ CFU/mℓ, 37°C, 18 hours, read-out: MIC
Escherichia coli DC 0 = test: as above; type: cell-based; details: DC0, Mueller-Hinton agar, 10⁷ CFU/mℓ, 37°C, 18 hours, read-out: MIC
Escherichia coli DC 2 = test: as above; type: cell-based; details: DC2, Mueller-Hinton agar, 10⁷ CFU/mℓ, 37°C, 18 hours, read-out: MIC
Escherichia coli OTEM = test: as above; type: cell-based; details: Mueller-Hinton agar, 10⁷ CFU/mℓ, 37°C, 18 hours, read-out: MIC
Escherichia coli 1507E = test: as above; type: cell-based; details: Mueller-Hinton agar, 10⁷ CFU/mℓ, 37°C, 18 hours, read-out: MIC
[7] = system: Pseudomonas aeruginosa 9027; test: as above; type: cell-based; details: Pseudomonas aeruginosa 9027; Mueller-Hinton agar, 10⁷ CFU/mℓ, 37°C, 18 hours; read-out: MIC
[8] = system: Pseudomonas aeruginosa 1592E; test: as above; type: cell-based; details: Mueller-Hinton agar, 10⁷ CFU/mℓ, 37°C, 18 hours, read-out: MIC
[9] = system: Pseudomonas aeruginosa 1771; test: as above; type: cell-based; details: Pseudomonas aeruginosa 1771; Mueller-Hinton agar, 10⁷ CFU/mℓ, 37°C, 18 hours; read-out: MIC
[10] = system: Pseudomonas aeruginosa 1771M; test: as above; type: cell-based; details: 18 h
Salmonella typhimurium = test: as above; type: cell-based; details: Salmonella enterica, Mueller-Hinton agar, 10⁷ CFU/mℓ, 37°C, 18 hours, read-out: MIC
[11] = system: Klebsiella aerogenes 1082E; test: as above; type: cell-based; details: Mueller-Hinton agar, 10⁷ CFU/mℓ, 37°C, 18 hours, read-out: MIC
[12] = system: Klebsiella aerogenes 1522E; test: as above; type: cell-based; details: Mueller-Hinton agar, 10⁷ CFU/mℓ, 37°C, 18 hours, read-out: MIC
Enterobacter cloacae P99 = test: as above; type: cell-based; details: Mueller-Hinton agar, 10⁷ CFU/mℓ, 37°C, 18 hours, read-out: MIC
[13] = system: Enterobacter cloacae 1321E; test: as above; type: cell-based; details: Mueller-Hinton agar, 10⁷ CFU/mℓ, 37°C, 18 hours, read-out: MIC
P. mirabilis = test: Preventive effect on the systemic infection; type: in vivo; details: Proteus mirabilis, in Mus musculus, P. mirabilis intraperitoneal infection, NMRI mice, survival on day 7, probit analysis, read-out: ED₅₀
Experimental: (§1) 10 fold of the pathogen which leads to 100% lethality were injected intraperitoneally to male and female NMRI mice weighing 18 to 20g. Immediately and after 4 hours, the dose of test compounds which was determined by two-fold serial dilution method was administered orally or subcutaneously; and on day 7, the effectiveness was evaluated in terms of ED₅₀ calculated from the number of survived mice by the probit analysis.

S. aureus 17740 = test: Preventive effect on the systemic infection; type: in vivo; details: Staphylococcus aureus, 17740, in Mus musculus, S. aureus 17740 intraperitoneal infection, NMRI mice, survival on day 7, probit analysis, read-out: ED₅₀
Experimental: as §1

in vivo = details: female, ICR, mouse
Experimental: Test compounds were administered to female ICR mice weighing 20 to 25g and on day 14, LD₅₀ was calculated from the number of survived mice by the probit analysis.

[14] = Oral Administration immediately and after 4 hours
[15] = Subcutaneous Injection immediately and after 4 hours

SMILES | MIC [1] | MIC [2] | MIC [3] | MIC [4] | MIC [5] | MIC [6] | MIC (Escherichia coli O 55) | MIC (Escherichia coli DC 0) | MIC (Escherichia coli DC 2) | MIC (Escherichia coli OTEM) | MIC (Escherichia coli 1507E) | MIC [7] | MIC [8] | MIC [9] | MIC [10] | MIC (Salmonella typhimurium) | MIC [11] | MIC [12] | MIC (Enterobacter cloacae P99) | MIC [13] | further results
NC1CCC2=C1CN(c1c(F)cc3c(=O)c(C(=O)O)cn(C4CC4)c3c1F)C2 (centres unmarked) [Example 1, 7-[6-amino-3-azabicyclo[3,3,0]oct-1(5)ene-3-yl]-1-cyclopropyl-6,8-difluoro-1,4-dihydro-4-oxoquinoline-3-carboxylic acid] | 0.391 mg/L (≈ 1.01 µM) | 0.098 mg/L (≈ 0.253 µM) | 0.098 mg/L (≈ 0.253 µM) | 0.098 mg/L (≈ 0.253 µM) | 0.098 mg/L (≈ 0.253 µM) | 0.049 mg/L (≈ 0.126 µM) | 0.025 mg/L (≈ 0.0645 µM) | 0.391 mg/L (≈ 1.01 µM) | 0.098 mg/L (≈ 0.253 µM) | 0.049 mg/L (≈ 0.126 µM) | 0.049 mg/L (≈ 0.126 µM) | 1.56 mg/L (≈ 4.03 µM) | 1.56 mg/L (≈ 4.03 µM) | 1.56 mg/L (≈ 4.03 µM) | 0.391 mg/L (≈ 1.01 µM) | 0.049 mg/L (≈ 0.126 µM) | 0.007 mg/L (≈ 0.0181 µM) | 0.098 mg/L (≈ 0.253 µM) | 0.098 mg/L (≈ 0.253 µM) | 0.025 mg/L (≈ 0.0645 µM) | ED50 (P. mirabilis; [14]): 5.5 mg/kg; ED50 (P. mirabilis; [15]): 1.55 mg/kg; ED50 (S. aureus 17740; [14]): 105 mg/kg; ED50 (S. aureus 17740; [15]): 25 mg/kg; LD50 at 14 day (in vivo; ip): 720 mg/kg; LD50 at 14 day (in vivo; po): 4000 mg/kg
CNC1CCC2=C1CN(c1c(F)cc3c(=O)c(C(=O)O)cn(C4CC4)c3c1F)C2 (centres unmarked) [Example 2, 1-cyclopropyl-6,8-difluoro-7-[6-methylamino-3-azabicyclo[3,3,0]oct-1(5)ene-3-yl]-1,4-dihydro-4-oxoquinoline-3-carboxylic acid] | 0.195 mg/L (≈ 0.486 µM) | 0.098 mg/L (≈ 0.244 µM) | 0.098 mg/L (≈ 0.244 µM) | 0.049 mg/L (≈ 0.122 µM) | 0.098 mg/L (≈ 0.244 µM) | 0.049 mg/L (≈ 0.122 µM) | 0.013 mg/L (≈ 0.0324 µM) | 0.781 mg/L (≈ 1.95 µM) | 0.098 mg/L (≈ 0.244 µM) | 0.098 mg/L (≈ 0.244 µM) | 0.098 mg/L (≈ 0.244 µM) | 3.12 mg/L (≈ 7.78 µM) | 1.56 mg/L (≈ 3.89 µM) | 1.56 mg/L (≈ 3.89 µM) | 0.781 mg/L (≈ 1.95 µM) | 0.391 mg/L (≈ 0.974 µM) | 0.013 mg/L (≈ 0.0324 µM) | 0.049 mg/L (≈ 0.122 µM) | 0.049 mg/L (≈ 0.122 µM) | 0.013 mg/L (≈ 0.0324 µM) | ED50 (S. aureus 17740; [14]): 112 mg/kg; ED50 (S. aureus 17740; [15]): 27 mg/kg; LD50 at 14 day (in vivo; ip): 810 mg/kg; LD50 at 14 day (in vivo; po): 4100 mg/kg
